Earlier results in patent US20260033492A1, “Pest Repellents and Uses Thereof” (priority 2020, published 2026).

Assays:
acetylcholinesterase = acetylcholinesterase (Homo sapiens, UniProt P22303); conditions: in humans
[1] = in vivo
salamander larvae = conditions: in vivo
insects = conditions: in vivo

Chain of acetylcholinesterase (P22303 32-614): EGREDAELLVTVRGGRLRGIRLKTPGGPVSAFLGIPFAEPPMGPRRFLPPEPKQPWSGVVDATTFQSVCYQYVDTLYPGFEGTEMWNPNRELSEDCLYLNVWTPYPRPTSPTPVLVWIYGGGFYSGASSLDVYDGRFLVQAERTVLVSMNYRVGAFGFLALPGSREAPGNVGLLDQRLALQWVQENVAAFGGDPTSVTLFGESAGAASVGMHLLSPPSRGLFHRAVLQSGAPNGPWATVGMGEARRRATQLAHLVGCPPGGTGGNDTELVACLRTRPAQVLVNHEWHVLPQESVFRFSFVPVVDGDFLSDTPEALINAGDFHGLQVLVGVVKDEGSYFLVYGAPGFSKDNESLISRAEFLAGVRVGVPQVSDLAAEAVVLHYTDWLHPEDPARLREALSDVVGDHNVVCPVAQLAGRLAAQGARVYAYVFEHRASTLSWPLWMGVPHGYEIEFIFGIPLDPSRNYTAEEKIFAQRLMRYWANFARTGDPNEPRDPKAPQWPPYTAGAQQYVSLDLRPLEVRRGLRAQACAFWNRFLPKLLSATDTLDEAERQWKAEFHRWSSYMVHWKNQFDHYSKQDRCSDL

For `CCN(CC)C(=O)c1cccc(C)c1` [DEET, N,N-diethyl-meta-toluamide], the inhibition of acetylcholinesterase (acetylcholinesterase) is given as “inhibit acetylcholinesterase” and the “irritancy / skin reactions” value [1] is given as “act as an irritant”.
In the case of `CCC(C)OC(=O)N1CCCCC1CCO` (stereo not shown) [Icaridin], the “toxicity to salamander larvae” value (salamander larvae) is listed as “toxic to salamander larvae” and the “effectiveness at repelling insects relative to DEET” value (insects) is listed as “as effective as DEET”.
